Literature values, collected in patent publication US20050256196A1, “Decreasing brain neuronal glutamate levels using alpha-keto branched chain amino acids” (Odessa Pharma, priority 2004, published 2005).

Key:
glutamine synthetase [1] = molecular target: T1, glutamine synthetase (Rattus norvegicus, UniProt P09606); design: known convulsant doses of MSO (MW 179) to rats; host or cells: rats, in vivo (endogenous enzyme)
glutamine synthetase [2] = molecular target: T1, glutamine synthetase
glutamine synthetase [3] = molecular target: T1, glutamine synthetase; conditions: normal animals after MSO; reduced from 5.6
[4] = in vivo
[5] = rats, known convulsant doses of MSO

T1 sequence (P09606 2-373 limits assumed): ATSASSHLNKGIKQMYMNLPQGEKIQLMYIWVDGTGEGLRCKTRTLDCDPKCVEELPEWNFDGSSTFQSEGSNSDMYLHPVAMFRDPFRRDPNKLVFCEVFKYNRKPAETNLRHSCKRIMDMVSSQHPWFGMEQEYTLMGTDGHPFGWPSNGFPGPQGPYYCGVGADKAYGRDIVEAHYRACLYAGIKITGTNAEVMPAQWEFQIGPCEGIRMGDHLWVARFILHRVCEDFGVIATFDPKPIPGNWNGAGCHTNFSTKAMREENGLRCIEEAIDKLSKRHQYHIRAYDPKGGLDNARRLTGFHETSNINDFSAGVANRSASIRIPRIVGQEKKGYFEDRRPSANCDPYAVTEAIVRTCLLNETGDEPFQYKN

CS(=N)(=O)CC[C@H](N)C(=O)O (stereo partly drawn) [MSO, L-methionine S-sulfoximine]
convulsant effect (glutamine synthetase [1]; depending on the dosage): can cause periodic convulsions | reduction of nerve terminal glutamate levels (glutamine synthetase [2]): 52% | reduction of brain astrocyte levels of glutamine (glutamine synthetase [2]; normal animals): 66% | brain levels of glutamine (glutamine synthetase [3]): 1.8 mmol/kg brain

CSCC[C@H](N)C(=O)O [L-methionine]
convulsant activity of MSO on simultaneous administration of L-methionine (glutamine synthetase [1]; [5]): prevents the convulsant activity | glutamine synthetase inhibitory activity of MSO on simultaneous administration of L-methionine (glutamine synthetase [1]; [5]): preserves the glutamine synthetase inhibitory activity

CP(=O)(O)CCC(N)C(=O)O [Glufosinate, ammonium-D-L-homoalanine-4-yl(methyl)-phosphinate]
crossing of the blood-brain barrier [4]: does not cross the blood-brain barrier
